Where no end group is shown, it is not given here.

The text below walks through data of patent US9518064B2, “Imidazothiadiazole and imidazopyridazine derivatives as protease activated receptor 4 (PAR4) inhibitors for treating platelet aggregation” (BRISTOL-MYERS SQUIBB COMPANY, priority 2012, dated 2016).

Series [1] concerns the target T1, PAR4 (Homo sapiens (Human), UniProt Q96RI0). In words: FLIPR assay in PAR4-expressing HEK293 cells (calcium mobilization). The format is cell-based. The note with it: PAR4 antagonist activity, FLIPR assay as described in Example A. On the technique in general: Calcium assays in cells follow changes in intracellular calcium, usually with a dye or a luminescent sensor.

The test system of a further series is human PRP. Briefly: Tissue factor-induced platelet aggregation assay. The format is cell-based. The following applies: FIGS. 1 and 2. From the text:
Example E is a tissue factor-induced platelet aggregation assay. The conditions in this assay mimic the physiological events during thrombus formation. In this assay, platelet aggregation in human PRP was initiated by the addition of tissue factor and CaCl2. Tissue factor, the initiator of the extrinsic coagulation cascade, is highly elevated in human atherosclerotic plaque. Exposure of blood to tissue factor at the atherosclerotic site triggers a robust generation of thrombin and induces the formation of obstructive thrombi.
The ability of PAR1 or PAR4 antagonists to inhibit platelet aggregation induced by endogenous thrombin can be tested in a tissue factor driven aggregation assay. Aggregation is initiated by addition of CaCl2 and recombinant human tissue factor, which results in the generation of thrombin through activation of the coagulation pathway in the plasma. Anticoagulant agents such as corn trypsin inhibitor (Haematologic Technologies, Essex Junction, Vt.) at 50 μg/ml and PEFABLOC® FG (Centerchem, Norwalk, Conn.) are also added to the sample to prevent fibrin clot formation during the time of the study. Platelet aggregation is monitored using standard instrumentation including optical aggregometer or impedance aggregometer.

The target in series [2] is T1, PAR4. Briefly: Gamma thrombin induced platelet aggregation assay (PRP assay). The format is cell-based. The following applies: γ-thrombin induced platelet aggregation in PRP.
The subject of a further series is human washed platelets. Briefly: Alpha-thrombin induced platelet aggregation assay in human washed platelets. The format is cell-based. The following applies: 0.1 h, read-out: IC50 for the inhibition of platelet aggregation. On the procedure:
Example D is an alpha-thrombin-induced platelet aggregation assay. Alpha-thrombin activates both PAR1 and PAR4. The ability of a selective PAR4 antagonist of the present invention, Example 13, to inhibit platelet aggregation was measured using a standard optical aggregometer.
Human blood was collected in ACD (85 mM tri-sodium citrate, 78 mM citric acid, 110 mM D-glucose, pH 4.4) at a ratio of 1.4 ml per 10 ml blood. PRP was isolated by centrifugation at 170 g for 14 minutes and platelets were further pelleted by centrifugation at 1300 g for 6 minutes. Platelets were washed once with 10 ml ACD containing 1 mg/ml bovine serum albumin. Platelets were resuspended at ˜2.5×10^8/ml in Tyrode's Buffer (137 mM NaCl, 2 mM KCl, 1.0 mM MgCl2, 1 mM CaCl2, 5 mM glucose, 20 mM HEPES pH 7.4).
The ability of a PAR4 antagonist (Example 13) compound to inhibit platelet aggregation induced by alpha-thrombin was tested using human washed platelets. Example 13 was pre-incubated with washed platelets for 20 min. Aggregation was initiated by addition of 1.5 nM alpha-thrombin (Haematologic Technologies, Essex Junction, Vt.) to 300 μl of washed platelets at stirring speed of 1000 rpm. […] IC50 was calculated using vehicle control as 0% inhibition.

The target in another series is PAR1 (Homo sapiens (Human), UniProt P25116). In words: FLIPR PAR1 counter screen (SFFLRR-induced calcium mobilization) in HEK293 cells. The format is cell-based. The following applies: Example A, routinely tested; read-out: EC50 of agonist peptide in the assay (PAR1 counter screen).
Sequence of PAR1 (P25116 22-425): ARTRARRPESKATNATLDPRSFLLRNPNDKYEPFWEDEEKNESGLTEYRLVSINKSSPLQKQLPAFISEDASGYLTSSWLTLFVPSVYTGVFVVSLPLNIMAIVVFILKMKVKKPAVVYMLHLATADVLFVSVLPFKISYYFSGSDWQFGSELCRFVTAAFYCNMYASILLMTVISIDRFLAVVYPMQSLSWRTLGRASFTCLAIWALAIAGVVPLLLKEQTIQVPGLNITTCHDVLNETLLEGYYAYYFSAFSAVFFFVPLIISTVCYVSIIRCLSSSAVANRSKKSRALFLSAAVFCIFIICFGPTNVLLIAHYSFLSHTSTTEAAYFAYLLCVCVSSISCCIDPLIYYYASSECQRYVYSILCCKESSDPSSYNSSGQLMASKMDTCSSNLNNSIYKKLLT
The conditions of series [3]: ACS patients; cited from earlier work.

T1 sequence (Q96RI0 18-385): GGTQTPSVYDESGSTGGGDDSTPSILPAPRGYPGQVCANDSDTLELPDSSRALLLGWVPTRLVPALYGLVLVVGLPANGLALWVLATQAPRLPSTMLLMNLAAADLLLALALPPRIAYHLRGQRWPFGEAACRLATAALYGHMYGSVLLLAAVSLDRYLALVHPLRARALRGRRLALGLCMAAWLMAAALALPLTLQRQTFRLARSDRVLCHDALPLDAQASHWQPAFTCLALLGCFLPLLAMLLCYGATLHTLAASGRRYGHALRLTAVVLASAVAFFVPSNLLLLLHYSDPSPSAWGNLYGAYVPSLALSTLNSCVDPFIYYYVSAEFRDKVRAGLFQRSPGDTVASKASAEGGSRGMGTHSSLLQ

What is called IC50 is the concentration that inhibits the measured activity by half. In the case of `COc1cc(OCc2cccc(-c3ccc(C#N)nc3)c2)c2cc(-c3cn4nc(OC)sc4n3)oc2c1` [Example 13], the half-maximal inhibitory concentration (IC50) turned out to be 1.74 nM on PAR4 [1], 4.91 nM against PAR4 [2] and 11 nM with human washed platelets. The “inhibition of tissue factor-induced platelet aggregation” value in the series with human PRP is reported as “effective inhibition”.

On to “trans-cinnamoyl-Phe(4-F)-Phe(4-guanidino)-Leu-Arg-Arg-NH2 [reference compound]”, for which the “inhibition of tissue factor-induced platelet aggregation” value in the series with human PRP was “effective inhibition”.

What is called EC50 is the midpoint of the concentration-response curve. On to SFFLRR [SFFLRR], for which the half-maximal effective concentration (EC50) on PAR1 is 600 nM.

For `CCOC(=O)N[C@@H]1CC[C@@H]2[C@@H](C1)C[C@H]1C(=O)O[C@H](C)[C@H]1[C@H]2/C=C/c1ccc(-c2cccc(F)c2)cn1` [vorapaxar], in series [3], the “reduction of cardiovascular events” value was “did not significantly reduce” and the “risk of major bleeding” value is listed as “significantly increased”.
